Source: ChEMBL document CHEMBL4312037, “Fragment hopping-based discovery of novel sulfinylacetamide-diarylpyrimidines (DAPYs) as HIV-1 nonnucleoside reverse transcriptase inhibitors” (Eur J Med Chem, 2020)

Experiments:
[1] = tested on: Human immunodeficiency virus 1; assay: Antiviral activity against HIV1; type: functional, organism-based
[2] = tested on: Human immunodeficiency virus 1; assay: Antiviral activity against HIV1 harbouring NNRTI K103N; type: functional, organism-based
[3] = tested on: Human immunodeficiency virus 1; assay: Antiviral activity against HIV1 3B infected in human MT4 cells assessed as virus-induced cytopathic effect incubated for 5 days by MTT assay; type: functional, organism-based; conditions: Human immunodeficiency virus 1, 3B, MT4, 120 h
[4] = tested on: Human immunodeficiency virus 1; assay: Antiviral activity against HIV1 3B harbouring NNRTI K103N mutant infected in human MT4 cells assessed as virus-induced cytopathic effect incubated for 5 days by MTT assay; type: functional, organism-based; conditions: Human immunodeficiency virus 1, 3B, MT4, 120 h
[5] = Cytotoxicity against human MT4 cells assessed as reduction in cell viability incubated for 5 days by MTT assay; type: cell-based
[6] = biological target: Human immunodeficiency virus type 1 reverse transcriptase (Human immunodeficiency virus 1, UniProt Q72547)
Description: Inhibition of recombinant wild type HIV-1 His-tagged reverse transcriptase p66/p51 expressed in Escherichia coli JM109 using poly(rA)/oligo(dT)16 as template/primer incubated for 40 mins by pico-green based spectrofluorometric analysis

in vitro [7] = conditions: human, MT4 cells; MT4 cells infected with HIV1 3B
Description: Selectivity index, ratio of CC50 for cytotoxicity against human MT4 cells to EC50 for antiviral activity against HIV1 3B infected in human MT4 cells

in vitro [8] = conditions: human, MT4 cells; MT4 cells infected with HIV1 3B K103N mutant
Description: Selectivity index, ratio of CC50 for cytotoxicity against human MT4 cells to EC50 for antiviral activity against HIV1 3B harbouring NNRTI K103N mutant infected in human MT4 cells

[9] = Stability in human liver microsomes assessed as intrinsic clearance; type: ADME, Microsome; conditions: read-out: CLH
[10] = Stability in human liver microsomes assessed as half life; type: ADME, Microsome
[11] = Stability in rat liver microsomes assessed as intrinsic clearance; type: ADME, Microsome; conditions: read-out: CLH
[12] = Stability in rat liver microsomes assessed as half life; type: ADME, Microsome

Compound	EC50 [1] [nM]	EC50 [2] [nM]	EC50 [3] [nM]	EC50 [4] [nM]	CC50 at 120 h [5] [nM]	IC50 [6] [nM]	selectivity ratio (in vitro [7])	selectivity ratio (in vitro [8])	microsomal CLint [9] [µL/min/mg]	half-life [10] [h]	microsomal CLint [11] [µL/min/mg]	half-life [12] [h]
O=C(CSc1nnc(Br)n1-c1ccc(C2CC2)c2ccccc12)Nc1ccc(C(=O)O)cc1Cl	2.85	< 3	–	–	–	–	–	–	–	–	–	–
COc1cc2nc([S+]([O-])CC(=O)Nc3ccc([N+](=O)[O-])cc3)nc(Nc3c(C)cc(/C=C/C#N)cc3C)c2cc1OC (stereo not drawn)	–	–	41.2	15.7	189000	11	4590	12100	–	–	–	–
COc1cc2nc([S+]([O-])CC(=O)Nc3ccc(C#N)cc3)nc(Nc3c(C)cc(/C=C/C#N)cc3C)c2cc1OC (stereo not drawn)	–	–	24.9	10.4	> 221000	5.7	> 8870	> 21200	8.45	1.37	8.58	1.35
